Like-named read-outs stand apart in the source and are kept apart here. Each block holds one compound with its values, some of them ahead of it.
Tests used:
YB-1 = test: Western blot/immunocytochemistry of YB-1 in melanoma cells; format: cell-based, human
Text: WM35 and A375 cells were obtained from ATCC (Manassas, VA), NCI/ADR-Res cells from NCI (Developmental Therapeutics Program, Frederick, MD) while 451Lu cells were provided by Dr. Meenhard Herlyn (Wistar Institute, PA). Authentication report was provided by ATCC and NCI for post-freeze viability, growth properties, morphology, mycoplasma contamination, species determination (cytochrome c oxidase I assay and STR analysis), sterility test and human pathogenic virus testing. Cells were frozen in aliquots in liquid nitrogen and cultured within six months. 451Lu cells were authenticated upon receipt using STR analysis and all cell lines are regularly tested for mycoplasma contamination using MycoAlert Mycoplasma Detection Kit from Lonza (Basel, Switzerland). WM35, A375 cells were cultured in DMEM, NCI/ADR-Res in RPMI and 451Lu in MEM with 10% FBS and 1% penicillin-streptomycin, at 37 °C with 5% CO2 in a humid environment. […]
For immunohistochemistry, sections from melanoma constructs, fixed in 10% formalin were deparaffinized and rehydrated in xylene and a graded series of ethanol and blocked in 2% goat serum/PBS for 30 min. After incubation with specific primary antibody overnight and biotinylated secondary antibody for 1 h, slides were counterstained with hematoxylin and immunoreactive complexes were detected using 3,3′-diaminobenzidene (Dako Corp., CA). […]

RSK = test: Western blot of RSK phosphorylation in A375 cells; format: cell-based, human; conditions: fisetin 60 µM:24 h, FR180204 10 µM
Text: WM35 and A375 cells were obtained from ATCC (Manassas, VA), NCI/ADR-Res cells from NCI (Developmental Therapeutics Program, Frederick, MD) while 451Lu cells were provided by Dr. Meenhard Herlyn (Wistar Institute, PA). Authentication report was provided by ATCC and NCI for post-freeze viability, growth properties, morphology, mycoplasma contamination, species determination (cytochrome c oxidase I assay and STR analysis), sterility test and human pathogenic virus testing. Cells were frozen in aliquots in liquid nitrogen and cultured within six months. 451Lu cells were authenticated upon receipt using STR analysis and all cell lines are regularly tested for mycoplasma contamination using MycoAlert Mycoplasma Detection Kit from Lonza (Basel, Switzerland). WM35, A375 cells were cultured in DMEM, NCI/ADR-Res in RPMI and 451Lu in MEM with 10% FBS and 1% penicillin-streptomycin, at 37 °C with 5% CO2 in a humid environment. After treatment of cells with/without fisetin and/or inhibitors, whole cell lysates were prepared and western blot analysis was performed as described elsewhere.

RSK1 [1] = biological target: T1, RSK1 (Homo sapiens, UniProt Q15418); test: biochemical
Description: In vitro kinase activity profiling of RSK isoforms was performed at Reaction Biology Corporation (Malvern, PA). Briefly, the specific kinase/substrate pair alongwith required cofactors was prepared in reaction buffer.
Target sequence in this assay (Q15418 whole entry, canonical isoform): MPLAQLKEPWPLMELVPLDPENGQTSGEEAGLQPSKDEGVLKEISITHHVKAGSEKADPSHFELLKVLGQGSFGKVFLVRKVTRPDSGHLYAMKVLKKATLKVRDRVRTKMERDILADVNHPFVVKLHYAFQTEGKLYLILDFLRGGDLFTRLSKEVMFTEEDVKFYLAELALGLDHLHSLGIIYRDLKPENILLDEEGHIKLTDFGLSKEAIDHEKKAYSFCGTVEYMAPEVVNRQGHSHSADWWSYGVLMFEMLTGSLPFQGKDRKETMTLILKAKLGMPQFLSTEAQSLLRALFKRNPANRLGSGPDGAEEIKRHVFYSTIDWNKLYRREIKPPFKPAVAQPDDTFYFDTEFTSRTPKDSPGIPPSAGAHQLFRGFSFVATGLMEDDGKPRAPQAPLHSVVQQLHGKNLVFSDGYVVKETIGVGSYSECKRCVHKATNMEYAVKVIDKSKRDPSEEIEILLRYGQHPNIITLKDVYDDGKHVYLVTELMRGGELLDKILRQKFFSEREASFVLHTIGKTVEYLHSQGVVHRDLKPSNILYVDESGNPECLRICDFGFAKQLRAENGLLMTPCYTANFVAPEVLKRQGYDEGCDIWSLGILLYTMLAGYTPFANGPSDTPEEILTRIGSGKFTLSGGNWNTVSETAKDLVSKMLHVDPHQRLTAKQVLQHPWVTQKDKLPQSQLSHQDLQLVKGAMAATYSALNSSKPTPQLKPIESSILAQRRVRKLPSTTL

RSK2 binding to YB-1 = biological target: T2, RSK2 binding to YB-1 (Homo sapiens, UniProt P51812); test: SPR competition assay, RSK2 pre-incubated with fisetin over immobilized YB-1; conditions: RSK2 100 nM pre-incubated with fisetin 1 and 10 µM
T2 construct: recombinant human proteins [full length and HIS-tag]; (Life Technologies, Italy); His; purchased Life Technologies, Italy (RSK2); Abnova Corporation, Taiwan (YB-1)
T2 sequence (P51812 whole entry): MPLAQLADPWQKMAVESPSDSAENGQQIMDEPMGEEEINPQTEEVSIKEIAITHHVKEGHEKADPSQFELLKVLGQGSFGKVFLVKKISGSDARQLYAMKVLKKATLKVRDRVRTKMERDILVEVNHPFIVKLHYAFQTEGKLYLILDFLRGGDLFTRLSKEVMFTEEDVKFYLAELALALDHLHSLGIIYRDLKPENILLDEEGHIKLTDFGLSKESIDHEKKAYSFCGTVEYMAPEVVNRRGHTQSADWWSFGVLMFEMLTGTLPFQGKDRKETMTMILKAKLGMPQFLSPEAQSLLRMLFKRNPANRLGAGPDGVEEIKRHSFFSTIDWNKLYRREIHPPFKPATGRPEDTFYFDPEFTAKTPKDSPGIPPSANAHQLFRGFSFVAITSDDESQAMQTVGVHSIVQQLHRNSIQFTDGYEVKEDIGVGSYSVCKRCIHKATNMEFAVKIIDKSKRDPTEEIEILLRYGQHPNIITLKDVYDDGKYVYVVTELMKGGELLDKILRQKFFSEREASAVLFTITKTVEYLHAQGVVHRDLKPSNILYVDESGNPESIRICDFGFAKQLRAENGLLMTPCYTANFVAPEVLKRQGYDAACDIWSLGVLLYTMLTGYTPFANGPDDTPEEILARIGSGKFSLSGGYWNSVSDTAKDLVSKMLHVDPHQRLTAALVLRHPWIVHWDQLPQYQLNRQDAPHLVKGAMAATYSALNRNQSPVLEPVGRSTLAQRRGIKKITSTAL
Description: (§1) Binding experiments were performed using a Biacore T-200 instrument (Uppsala, Sweden) at 25 °C. 60 response units (RU) of the YB-1 human recombinant protein with GST-tag at N-terminal (51–139 aa, 35 kDa including GST tag, from Abnova Corporation, Taiwan) were directly immobilized on the EDC/NHS activated flow cell2 of the CM5 chip (GE certified) in water. The unoccupied sites were blocked with 1 M ethanol amine. The analytes RPS6KA1 (RSK1, 88.5 kDa) and RPS6KA3 (RSK2, 86.3 kDa) recombinant human proteins [full length and HIS-tag] (Life Technologies, Italy) were flown over the chip at variable concentrations in 10 mM sodium acetate buffer (pH 5.0), with flow rate of 5ul/min, at a single analyte concentration. Binding of analyte to the immobilized protein was monitored in real time to obtain on (ka) and off (kd) rates. The equilibrium constant (KD) was calculated from the observed ka and kd or by steady state kinetics as for the small molecules. Stocks were prepared in 100% DMSO, and further dilutions were made in assay buffer containing 10 mM HEPES buffer (pH 7.4), 150 mM NaCl, 3 mM EDTA, 0.05% P20 (polyoxyethylenesorbitan) and 0.1% BSA. Full kinetics analysis was performed at using analyte concentrations 50 nM (or 100 nM without BSA) to 0, run with serial dilutions, 50, 25, 12.5, 6.25, 3.125, 0 nM, and a flow rate of 30 ul/min. […]

ERK1 = ERK1 (Homo sapiens, UniProt P27361); test: Radiometric in vitro kinase activity assay; format: biochemical
ERK1, sequence (P27361 whole entry): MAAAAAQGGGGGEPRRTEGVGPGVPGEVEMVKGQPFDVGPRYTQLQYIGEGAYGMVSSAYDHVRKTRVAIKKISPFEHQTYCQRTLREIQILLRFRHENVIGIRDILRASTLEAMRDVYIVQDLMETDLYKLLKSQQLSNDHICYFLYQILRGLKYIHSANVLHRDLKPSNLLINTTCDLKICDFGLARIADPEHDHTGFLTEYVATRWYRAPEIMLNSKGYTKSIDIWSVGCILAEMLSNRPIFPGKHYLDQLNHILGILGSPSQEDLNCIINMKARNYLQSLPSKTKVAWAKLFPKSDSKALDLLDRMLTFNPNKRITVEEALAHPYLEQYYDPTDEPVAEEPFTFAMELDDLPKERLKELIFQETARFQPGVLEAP

ERK2 = ERK2 (Homo sapiens, UniProt P28482); test: Radiometric in vitro kinase activity assay; format: biochemical
ERK2, sequence (P28482 whole entry): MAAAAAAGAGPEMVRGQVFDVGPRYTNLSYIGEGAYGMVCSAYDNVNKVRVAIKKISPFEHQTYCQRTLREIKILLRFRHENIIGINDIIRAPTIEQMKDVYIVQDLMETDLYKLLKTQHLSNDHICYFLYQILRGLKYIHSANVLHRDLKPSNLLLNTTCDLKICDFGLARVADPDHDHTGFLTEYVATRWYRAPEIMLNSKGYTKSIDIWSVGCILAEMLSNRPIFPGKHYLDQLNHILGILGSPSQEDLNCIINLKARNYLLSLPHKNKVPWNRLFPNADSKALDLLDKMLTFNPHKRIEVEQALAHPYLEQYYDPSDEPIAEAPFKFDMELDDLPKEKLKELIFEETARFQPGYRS

451Lu melanoma cells = test: 451Lu melanoma xenograft in athymic nude mice; format: in vivo; conditions: day 35; fisetin 1 mg/animal i.p. thrice weekly; vemurafenib 2 mg/animal oral gavage 5 days/week; control 1179.7 mm^3
Description: Athymic (nu/nu) female nude mice (Harlan, Madison, WI), 4–5 weeks old, were housed under pathogen-free conditions, in the University of Wisconsin Animal Resource Facility, with a 12-hour light/12-hour dark schedule and fed an autoclaved diet ad libitum. All animal experiments were approved by and carried out according to Institutional Animal Care and Use Committee guidelines, University of Wisconsin-Madison, protocol # M005212. Briefly, 1 × 10^6 451Lu cells were injected s/c into each flank of 18 mice randomly divided into 3 groups. The first group received intraperitoneal injection of fisetin 40 mg/kg b.wt. (1 mg/animal) thrice weekly, the second group received vemurafenib by oral gavage 80 mg/kg b.wt. (2 mg/animal) dissolved in DMSO, 5 days/week, while the third group served as the DMSO treated control group. Mice weight and tumor volumes were recorded twice weekly. The animals were sacrificed when tumors reached a volume of 1200 mm^3 in the control group. Samples were collected and stored at −80 °C until further analysis.

NCI/ADR-Res cells = test: MTT cell viability; format: cell-based, human; conditions: NCI/ADR-Res ovarian tumor cells
Description: Cells seeded in 24-well plates were treated at 70% confluence with/without fisetin and/or vemurafenib for 24 hours. Cell viability was determined by MTT assay as described.

RSK2 [2] = biological target: T3, RSK2 (Homo sapiens, UniProt P51812); test: Radiometric in vitro kinase activity assay (Reaction Biology); format: biochemical; design: purchased Reaction Biology Corporation (Malvern, PA), contract assay; conditions: 10-dose, 3-fold serial dilution from 100 μM; 30 μM ATP; read-out: IC50 (M), kinase activity inhibition RSK2
Target sequence in this assay (P51812 whole entry): as the sequence (P51812 whole entry) above

RSK3 [3] = biological target: T4, RSK3 (Homo sapiens, UniProt Q15349); test: as above; format: biochemical; design: purchased Reaction Biology Corporation (Malvern, PA), contract assay; conditions: 10-dose, 3-fold serial dilution from 100 μM; 30 μM ATP; read-out: IC50 (M), kinase activity inhibition RSK3
Target sequence in this assay (Q15349 whole entry): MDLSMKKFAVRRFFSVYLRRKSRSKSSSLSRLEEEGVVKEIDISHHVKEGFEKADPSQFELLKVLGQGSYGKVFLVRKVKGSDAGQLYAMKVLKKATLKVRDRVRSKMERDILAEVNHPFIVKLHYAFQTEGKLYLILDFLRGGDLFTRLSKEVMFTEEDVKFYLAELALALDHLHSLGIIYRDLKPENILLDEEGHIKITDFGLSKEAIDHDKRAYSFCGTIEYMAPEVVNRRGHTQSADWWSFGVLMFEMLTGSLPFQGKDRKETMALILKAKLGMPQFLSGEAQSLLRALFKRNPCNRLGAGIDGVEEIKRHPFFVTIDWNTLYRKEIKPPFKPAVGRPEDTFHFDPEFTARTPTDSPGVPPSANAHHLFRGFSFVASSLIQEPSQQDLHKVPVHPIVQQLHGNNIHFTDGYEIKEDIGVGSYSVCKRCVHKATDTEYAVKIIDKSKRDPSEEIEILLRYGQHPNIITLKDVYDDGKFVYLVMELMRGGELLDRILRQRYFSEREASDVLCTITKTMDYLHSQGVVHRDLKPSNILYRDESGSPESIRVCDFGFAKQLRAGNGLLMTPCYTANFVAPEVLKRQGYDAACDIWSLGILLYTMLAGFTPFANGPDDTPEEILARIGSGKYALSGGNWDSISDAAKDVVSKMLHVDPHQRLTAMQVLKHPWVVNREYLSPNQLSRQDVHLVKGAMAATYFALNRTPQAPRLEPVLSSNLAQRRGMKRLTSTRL

RSK2 [4] = biological target: T3, RSK2; test: KINOMEscan competition binding assay; design: purchased KINOMEscan screening platform (San Diego, CA), contract assay
Description: (§2) The KINOMEscan screening platform (San Diego, CA) was employed to quantitatively measure interactions between fisetin and RSK isoforms. Binding constants (Kds) were calculated by measuring the amount of kinase captured on solid support as a function of the test compound concentration, using the Hill equation. The Hill Slope was set to −1. Curves were fitted using a non-linear least square fit with the Levenberg-Marquardt algorithm.

RSK1 [5] = biological target: T1, RSK1; test: KINOMEscan competition binding assay; design: RSK1 (Kinase Domain 1-N-terminal): Average Kd (nM): 8100; RSK1 (Kinase Domain 2-C-terminal): Average Kd (nM): 2500; purchased KINOMEscan screening platform (San Diego, CA), contract assay; conditions: duplicate, top concentration 100 µM
Description: as §2

RSK3 [6] = biological target: T4, RSK3; test: KINOMEscan competition binding assay; design: RSK3 (Kinase Domain 1-N-terminal): Average Kd (nM): 5200; RSK3 (Kinase Domain 2-C-terminal): Average Kd (nM): 5800; purchased KINOMEscan screening platform (San Diego, CA), contract assay; conditions: duplicate, top concentration 100 µM
Description: as §2

[7] = biological target: T5, YB-1 human recombinant protein (Homo sapiens, UniProt P67809); test: SPR (Biacore) full kinetics, RSK analytes over immobilized YB-1; conditions: without BSA; analyte 100-0 nM; 25 °C; read-out: KD for binding to immobilized YB-1
T5 construct: (51–139 aa, 35 kDa including GST tag, from Abnova Corporation, Taiwan); purchased Abnova Corporation, Taiwan
T5 sequence (P67809 51-139): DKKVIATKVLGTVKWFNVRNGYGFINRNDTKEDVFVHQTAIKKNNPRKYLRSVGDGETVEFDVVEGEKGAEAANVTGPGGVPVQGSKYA
Description: as §1

Compound: CC(C)CCN1c2nc(Nc3cc(F)c(O)c(F)c3)ncc2N(C)C(=O)C1C (stereo not drawn) [BI-D1870, reference compound]
YB-1 expression (YB-1; A375 cells, in comparison to fisetin (60 μM:24 h)): modest effect

Compound: Nc1[nH]nc2nnc(-c3c(-c4ccccc4)nn4ccccc34)cc12 [FR180204, reference compound]
RSK phosphorylation at threonine359/serine363 (RSK): significant decrease

IC50 (RSK1 [1]): 3.79 µM | effect on binding of RSK2 to YB-1 (RSK2 binding to YB-1): promote its binding to YB-1 | IC50 (ERK1): 8.5 µM | IC50 (ERK2): 9.88 µM | IC50 (RSK2 [2]): 2.78e-06 M | IC50 (RSK3 [3]): 8.91e-07 M | Kd (RSK2 [4]; C-terminal kinase domain, duplicate, top concentration 100 µM, read-out: Average Kd, RSK2 (Kinase Domain 2-C-terminal)): 8.4 µM | Kd (RSK2 [4]; N-terminal kinase domain, duplicate, top concentration 100 µM, read-out: Average Kd, RSK2 (Kinase Domain 1-N-terminal)): 0.05 µM | Kd (RSK2 [4]; single replicate curve, C-terminal kinase domain, read-out: Kd, RSK2(Kin.Dom.2-C-terminal), Replicate ID = 1): 8.1 µM | Kd (RSK1 [5]; C-terminal kinase domain, read-out: Average Kd, RSK1 (Kinase Domain 2-C-terminal)): 2.5 µM | Kd (RSK1 [5]; N-terminal kinase domain, read-out: Average Kd, RSK1 (Kinase Domain 1-N-terminal)): 8.1 µM | Kd (RSK3 [6]; C-terminal kinase domain, read-out: Average Kd, RSK3 (Kinase Domain 2-C-terminal)): 5.8 µM | Kd (RSK3 [6]; N-terminal kinase domain, read-out: Average Kd, RSK3 (Kinase Domain 1-N-terminal)): 5.2 µM
Compound: O=c1c(O)c(-c2ccc(O)c(O)c2)oc2cc(O)ccc12 [Fisetin, fisetin]
average tumor volume (451Lu melanoma cells): 789.3 mm^3 | YB-1 phosphorylation and total protein levels (YB-1; A375 and 451Lu cells, 0–80 µM, 24 h): dose-dependent decrease in YB-1 phosphorylation | cell viability (NCI/ADR-Res cells): reduced viability | RSK phosphorylation at threonine359/serine363 (RSK): significant decrease

Compound: CCCS(=O)(=O)Nc1ccc(F)c(C(=O)c2c[nH]c3ncc(-c4ccc(Cl)cc4)cc23)c1F [vemurafenib, reference compound]
average tumor volume (451Lu melanoma cells): 641.7 mm^3

Kd [7]: 0.534 µM
Compound: RSK2: recombinant human protein RPS6KA3, full length, HIS-tag, 86.3 kDa; SPR analyte

Source: PMC6200766, “Fisetin targets YB-1/RSK axis independent of its effect on ERK signaling: insights from in vitro and in vivo melanoma models” (Scientific Reports, 2018)
